Data from article PMC10285291, “The impact of CYP2C19 genotype on phenoconversion by concomitant medication” (Frontiers in Pharmacology, 2023).

Assays:
[1] = target: T1, CYP2C19 (Homo sapiens, UniProt P33261); test: in vitro; conditions: microsomes
[2] = target: T1, CYP2C19; test: S-mephenytoin […]'-hydroxylation inhibition in individual human liver microsomes at […] fluvoxamine, LC-MS/MS; type: cell-based; design: human liver microsomes

T1 sequence (P33261 whole entry): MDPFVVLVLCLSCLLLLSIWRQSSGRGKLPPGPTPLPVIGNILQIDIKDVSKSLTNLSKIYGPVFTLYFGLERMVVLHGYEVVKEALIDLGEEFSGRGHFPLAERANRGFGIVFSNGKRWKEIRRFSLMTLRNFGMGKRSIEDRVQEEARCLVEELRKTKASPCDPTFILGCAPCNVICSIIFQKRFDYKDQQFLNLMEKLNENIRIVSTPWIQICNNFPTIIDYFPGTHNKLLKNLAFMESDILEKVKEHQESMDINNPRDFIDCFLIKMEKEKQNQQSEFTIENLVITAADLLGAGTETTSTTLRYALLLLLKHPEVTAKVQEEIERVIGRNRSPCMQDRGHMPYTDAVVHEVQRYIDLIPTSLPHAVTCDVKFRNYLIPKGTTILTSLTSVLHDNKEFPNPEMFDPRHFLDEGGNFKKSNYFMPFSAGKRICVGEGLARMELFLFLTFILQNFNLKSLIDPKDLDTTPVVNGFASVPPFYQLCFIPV

KI (inactivation) [1]	Compound	inhibition at 1 µM [2]
4.47 ± 1.8 µM	COc1ccc2[nH]c([S+]([O-])Cc3ncc(C)c(OC)c3C)nc2c1 (centres unmarked) [omeprazole]	
	COCCCC/C(=N\OCCN)c1ccc(C(F)(F)F)cc1 [fluvoxamine]	85%
